Assay results taken from JP2016013988A, “エステル化合物” (Mitsubishi Gas Chemical Co Inc, priority 2014, dated 2016).

Experiment: APHA (colour number) of the purified diester
Format: physicochemical
Settings: after KOH/water washing, removal of acid under reduced pressure and activated carbon treatment

| APHA | SMILES |
| --- | --- |
| 28 | CCCCC(CC)(COCC(C)(C)COC(=O)C(C)(C)C)COC(=O)C(C)(C)C (stereo not drawn) [実施例1, ジピバリン酸 4−オキサ−2−ブチル−2−エチル−6,6−ジメチルヘプタン−1,7−ジイル] |
| 27 | CCCC(C)(COCC(C)(C)COC(=O)C(C)(C)C)COC(=O)C(C)(C)C (stereo not drawn) [実施例2, ジピバリン酸 4−オキサ−2−プロピル−2,6,6−トリメチルヘプタン−1,7−ジイル] |
| 22 | CCCCC(CC)C(=O)OCC(C)(C)COCC(C)(CCC)COC(=O)C(CC)CCCC (stereo not drawn) [実施例4, ビス(2−エチルへキサン酸) 4−オキサ−2−プロピル−2,6,6−トリメチルヘプタン−1,7−ジイル] |
